Data taken from ChEMBL document CHEMBL5604063, “ASAP - DENV-2 NS2B-NS3 protease fluorescence dose response” (2024).
Several values for one entry are separate records, joined by “and”; a condition that tells them apart may be missing. Equal values may be shown once.

Assays:
Genome polyprotein [1] = molecular target: T1, Genome polyprotein (dengue virus type 2, UniProt P29990); assay type: functional, Thailand/16681/1984
Genome polyprotein [2] = molecular target: T1, Genome polyprotein; assay type: functional, Thailand/16681/1984; remark: listed apart in the source

T1 sequence (P29990 1346-1475 limits assumed): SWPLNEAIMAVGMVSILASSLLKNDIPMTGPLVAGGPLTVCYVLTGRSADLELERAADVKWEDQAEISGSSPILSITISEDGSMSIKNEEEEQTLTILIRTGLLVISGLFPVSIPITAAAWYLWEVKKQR
T1 sequence (P29990 1476-2093 limits assumed): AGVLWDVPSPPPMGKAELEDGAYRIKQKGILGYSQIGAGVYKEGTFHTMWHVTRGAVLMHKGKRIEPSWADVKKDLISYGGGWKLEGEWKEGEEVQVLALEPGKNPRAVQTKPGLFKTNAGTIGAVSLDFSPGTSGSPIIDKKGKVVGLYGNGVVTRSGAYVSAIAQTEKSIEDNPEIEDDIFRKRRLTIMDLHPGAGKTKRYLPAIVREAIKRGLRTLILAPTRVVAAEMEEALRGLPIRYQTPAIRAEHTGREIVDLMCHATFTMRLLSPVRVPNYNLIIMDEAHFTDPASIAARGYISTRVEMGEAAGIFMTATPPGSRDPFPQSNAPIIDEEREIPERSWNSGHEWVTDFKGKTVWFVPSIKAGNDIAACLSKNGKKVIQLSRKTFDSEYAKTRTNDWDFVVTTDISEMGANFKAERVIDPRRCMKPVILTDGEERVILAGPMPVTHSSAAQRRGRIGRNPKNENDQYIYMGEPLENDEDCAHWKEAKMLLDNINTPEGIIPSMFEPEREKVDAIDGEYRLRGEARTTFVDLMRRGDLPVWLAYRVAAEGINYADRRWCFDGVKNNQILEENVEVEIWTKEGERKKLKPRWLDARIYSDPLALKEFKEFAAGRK

Row | Compound | IC50 (Genome polyprotein [1]) | IC50 (Genome polyprotein [2])
1 | C[C@H](CC(=O)O)N(C)C(=O)c1cc(Cl)cc(NC(=O)OCc2ccccc2)c1 | > 99.5 µM | > 100 µM
2 | Clc1ccc2[nH]cc(Cc3ccc(-c4nn[nH]n4)cc3)c2c1 | 58.7 µM | 16.4 µM
3 | C[C@H](CC(=O)O)NC(=O)c1cc(Cl)cc(NC(=O)OCc2ccccc2)c1 | > 99.5 µM | > 100 µM
4 | CCc1sc(C(=O)Nc2cccc(-c3nnn[nH]3)c2)cc1C | > 99.5 µM | > 100 µM
5 | O=C(O)CCc1ccc(NC(=O)c2cc(Cl)cc(C3CC3)c2)cc1 | > 99.5 µM | > 100 µM
6 | CC(C)C[C@H](NC(=O)c1cc(Cl)cc(NC(=O)OCc2ccccc2)c1)c1nnn[nH]1 | 74.6 µM | 28.3 µM
7 | O=C(Nc1cc(Cl)cc(C(=O)Nc2ccccc2[C@@H]2C[C@H]2C(=O)O)c1)OCc1ccccc1 | > 99.5 µM | > 100 µM
8 | NCc1cc(C(=O)N[C@H]2CCCOC2)cc([C@@H]2C[C@H]2c2cc(Cl)cc(NC(=O)OCc3ccccc3)c2)c1 | > 99.5 µM | > 100 µM
9 | O=C(Nc1cc(Cl)cc(C(=O)NC[C@H]2C[C@@H]2C(=O)O)c1)OCc1ccccc1 | > 99.5 µM | > 100 µM
10 | O=C(Nc1cc(Cl)cc(C(=O)NCc2ccc(-c3nnn[nH]3)cc2)c1)OCc1ccccc1 | 21 µM | 11.7 µM and 9.92 µM
11 | CC(C)(C)NC(=O)[C@H](Nc1cccc(-c2nn[nH]n2)c1)c1cc(Cl)cc(NC(=O)OCc2ccccc2)c1 | 11.3 µM | 7.15 µM and 7.59 µM
12 | O=C(Nc1cc(Cl)cc(C(=O)N2CCC[C@H]2c2nnn[nH]2)c1)OCc1ccccc1 | > 99.5 µM | > 100 µM
13 | C=CC[C@H](Nc1ccc(-c2nn[nH]n2)cc1)c1cc(Cl)cc(NC(=O)OCc2ccccc2)c1 | 6.6 µM | 5.41 µM and 5.49 µM
14 | NCc1cc(C(=O)N2CCNC(=O)C2)cc([C@@H]2C[C@H]2c2cc(Cl)cc(NC(=O)OCc3ccccc3)c2)c1 | 49.1 µM | > 100 µM
15 | O=C(O)c1cccc(NC(=O)c2cc(Cl)cc3[nH]ncc23)c1 | > 99.5 µM | > 100 µM
16 | O=C(Nc1cc(Cl)cc([C@H]2CN(Cc3ccccc3)C[C@@H]2c2cccc(-c3nn[nH]n3)c2)c1)OCc1ccccc1 | 6.12 µM | 5.87 µM and 5.96 µM
17 | CCCNC(=O)[C@H](Nc1cccc(-c2nn[nH]n2)c1)c1cc(Cl)cc(NC(=O)OCc2ccccc2)c1 | 17.3 µM | 9.41 µM and 9.81 µM
18 | CC(C)NC(=O)[C@H](Nc1cccc(-c2nn[nH]n2)c1)c1cc(Cl)cc(NC(=O)OCc2ccccc2)c1 | 21.5 µM | 12.2 µM
19 | O=C(Nc1cc(Cl)cc(C(=O)N2CCC(c3nn[nH]n3)CC2)c1)OCc1ccccc1 | > 99.5 µM | > 100 µM
20 | CS(=O)(=O)c1cc(CN)cc([C@@H]2C[C@H]2c2cc(Cl)cc(NC(=O)OCc3ccccc3)c2)c1 | > 99.5 µM | > 100 µM
21 | CCc1[nH]c(-c2ccccc2)cc1C(=O)Nc1cccc(-c2nnn[nH]2)c1 | > 99.5 µM | 33.1 µM
22 | CN(C)C(=O)c1cc(CN)cc([C@@H]2C[C@H]2c2cc(Cl)cc(NC(=O)OCc3ccccc3)c2)c1 | 31.6 µM | > 100 µM
23 | CS(=O)(=O)NC(=O)c1cc(CN)cc(NC(=O)c2cc(Cl)cc(NC(=O)OCc3ccccc3)c2)c1 | > 99.5 µM | > 100 µM
24 | CC(=Cc1cc(Cl)cc(NC(=O)OCc2ccccc2)c1)c1cccc(CN)c1 | 23.4 µM | > 100 µM
25 | C#C[C@H](Nc1cccc(C(=O)O)c1)c1cc(Cl)cc2[nH]ncc12 | > 99.5 µM | > 100 µM

Row | Compound | IC50 (Genome polyprotein [1]) | IC50 (Genome polyprotein [2])
26 | CCc1cc(C(=O)Nc2cccc(-c3nnn[nH]3)c2)ccc1Cl | > 99.5 µM | 67.2 µM
27 | C[C@H](NC(=O)c1cc(Cl)cc(NC(=O)OCc2ccccc2)c1)C(=O)O | > 99.5 µM | > 100 µM
28 | O=C(Nc1ccc(-n2nn[nH]c2=O)cc1)c1cc(Cl)cc(C2CC2)c1 | > 99.5 µM | 62.2 µM
29 | Cc1c(C(=O)Nc2cccc(-c3nnn[nH]3)c2)n[nH]c1-c1ccc(Cl)cc1 | 42 µM | 18.2 µM
30 | COC[C@H](NC(=O)c1cc(Cl)cc(NC(=O)OCc2ccccc2)c1)c1nnn[nH]1 | > 99.5 µM | > 100 µM
31 | CC(C)[C@H](NC(=O)c1cc(Cl)cc(NC(=O)OCc2ccccc2)c1)C(=O)O | > 99.5 µM | > 100 µM
32 | CNC(=O)[C@H](Nc1ccc(-c2nnn[nH]2)cc1)c1cc(Cl)cc(C2CC2)c1 | > 99.5 µM | > 100 µM
33 | O=C(Nc1cc(Cl)cc(C(=O)N2CCC[C@H](c3nnn[nH]3)C2)c1)OCc1ccccc1 | > 99.5 µM | > 100 µM
34 | O=C(Nc1cc(Cl)cc([C@H](Nc2cccc(-c3nn[nH]n3)c2)C(=O)NCc2ccccc2)c1)OCc1ccccc1 | 8.05 µM | 7.11 µM and 6.42 µM
35 | C=CC[C@H](Nc1cc(Cl)cc(NC(=O)OCc2ccccc2)c1)c1cccc(CN)c1 | 37.5 µM | > 100 µM
36 | O=C(Nc1cccc(-c2nnn[nH]2)c1)c1ccc(-c2cccnc2)s1 | > 99.5 µM | > 100 µM
37 | CCOC(=O)[C@H]1[C@H](c2cc(Cl)cc(NC(=O)OCc3ccccc3)c2)[C@H]1c1cccc(-c2nnn[nH]2)c1 | 13.1 µM | 13.9 µM
38 | O=C(Nc1cc(Cl)cc(C(=O)Nc2cccc3c2OC[C@H](C(=O)O)C3)c1)OCc1ccccc1 | 50.4 µM | 19.1 µM
39 | NCc1cc(C(=O)N2CCOCC2)cc([C@@H]2C[C@H]2c2cc(Cl)cc(NC(=O)OCc3ccccc3)c2)c1 | 44.5 µM | > 100 µM
40 | NCc1cc(/C=C/C(=O)O)cc(NC(=O)c2cc(Cl)cc(NC(=O)OCc3ccccc3)c2)c1 | 94.6 µM | > 100 µM
41 | CCOC(=O)[C@H]1[C@H](c2cccc(CN)c2)[C@H]1c1cc(Cl)cc(NC(=O)OCc2ccccc2)c1 | > 99.5 µM | > 100 µM
42 | C=CC[C@H](Nc1cccc(C(=O)O)c1)c1cc(Cl)cc2[nH]ncc12 | > 99.5 µM | > 100 µM
43 | Clc1ccc2[nH]cc(Cc3cccc(-c4nn[nH]n4)c3)c2c1 | 63.1 µM | 22.4 µM
44 | C=CC[C@H](Nc1cc(Cl)cc(NC(=O)OCc2ccccc2)c1)c1ccc(-c2nn[nH]n2)cc1 | 7.02 µM | 5.69 µM and 5.81 µM
45 | CC(C)CNC(=O)[C@H](Nc1cccc(-c2nn[nH]n2)c1)c1cc(Cl)cc(NC(=O)OCc2ccccc2)c1 | 12.7 µM | 9.91 µM and 9.02 µM
46 | O=C(Nc1cc(Cl)cc([C@H](Nc2cccc(-c3nn[nH]n3)c2)C(=O)N[C@H]2CCOC2)c1)OCc1ccccc1 | 40.3 µM | 22.9 µM
47 | CCCn1cc(-c2cc(Cl)cc(NC(=O)OCc3ccccc3)c2)c(C(=O)O)n1 | > 99.5 µM | > 100 µM
48 | O=C(Nc1cccc(-n2nn[nH]c2=O)c1)c1cc(Cl)cc(C2CC2)c1 | 98.7 µM | 50.1 µM
49 | O=C(Nc1cc(Cl)cc([C@H](Nc2cccc(-c3nn[nH]n3)c2)C(=O)NC[C@H]2CCCO2)c1)OCc1ccccc1 | 33.7 µM | 17.6 µM
50 | NCc1cc(CO)cc([C@H]2C[C@@H]2c2cc(Cl)cc(NC(=O)OCc3ccccc3)c2)c1 | 29.7 µM | > 100 µM

Row | Compound | IC50 (Genome polyprotein [1]) | IC50 (Genome polyprotein [2])
51 | O=C(Nc1cc(Cl)cc(-c2ccn3c(C(=O)O)cnc3c2)c1)OCc1ccccc1 | > 99.5 µM | 13.6 µM
52 | O=C(Nc1cc(Cl)cc(-c2ccc3[nH]nc(C(=O)O)c3c2)c1)OCc1ccccc1 | 9.15 µM | 6.27 µM and 5 µM
53 | O=C(O)Cn1ncc2cc(-c3cc(Cl)cc(NC(=O)OCc4ccccc4)c3)ccc21 | 20.8 µM | 10.7 µM and 11 µM
54 | O=C(Nc1cc(Cl)cc(CNc2cccc(-c3nn[nH]n3)c2)c1)OCc1ccccc1 | 11.6 µM | 8.36 µM and 5.15 µM
55 | OCC#C[C@H](Nc1ccc(-c2nnn[nH]2)cc1)c1cc(Cl)cc(C2CC2)c1 | > 99.5 µM | 40.8 µM
56 | O=C(Nc1cc(Cl)cc(-c2ccc3cc(C(=O)O)[nH]c3c2)c1)OCc1ccccc1 | 7.42 µM | 7.4 µM and 4.18 µM
57 | O=C(Nc1cc(Cl)cc(-c2ccc3nc(C(=O)O)ncc3c2)c1)OCc1ccccc1 | 11.4 µM | 11.6 µM and 12.4 µM
58 | NCc1ccc(C(=O)O)c(NC(=O)c2cc(Cl)cc(NC(=O)OCc3ccccc3)c2)c1 | > 99.5 µM | > 100 µM
59 | CC(C)CNC(=O)[C@H](Nc1cccc(-c2nnn[nH]2)c1)c1cc(Cl)cc(C2CC2)c1 | 74.4 µM | 47.3 µM
60 | O=C(Nc1cc(Cl)cc(C(=O)NC2(c3nnn[nH]3)CC2)c1)OCc1ccccc1 | > 99.5 µM | > 100 µM
61 | CC(=Cc1cccc(CN)c1)c1cc(Cl)cc(NC(=O)OCc2ccccc2)c1 | 63.2 µM | > 100 µM
62 | O=C(Nc1cc(Cl)cc(-c2cnn3ccc(C(=O)O)cc23)c1)OCc1ccccc1 | > 99.5 µM | > 100 µM
63 | Clc1cccc([C@H](C#Cc2ccccc2)Nc2cccc(-c3nn[nH]n3)c2)c1 | 7.71 µM | 6.31 µM and 4.12 µM
64 | CS(=O)(=O)NC(=O)c1cc(CN)cc([C@@H]2C[C@H]2c2cc(Cl)cc(NC(=O)OCc3ccccc3)c2)c1 | > 99.5 µM | > 100 µM
65 | O=C(Nc1cc(Cl)cc(C(=O)Nc2cc(C(=O)O)ccn2)c1)OCc1ccccc1 | > 99.5 µM | 35.6 µM
66 | CNC(=O)[C@H](Nc1cc(Cl)cc(NC(=O)OCc2ccccc2)c1)c1ccc(-c2nn[nH]n2)cc1 | 45.6 µM | 19.2 µM
67 | COCCNC(=O)[C@H](Nc1cccc(-c2nn[nH]n2)c1)c1cc(Cl)cc(NC(=O)OCc2ccccc2)c1 | 59.8 µM | 28 µM
68 | CC(=Cc1cccc(-c2nnn[nH]2)c1)c1cc(Cl)cc(NC(=O)OCc2ccccc2)c1 | 9.44 µM | 8.82 µM and 11.8 µM
69 | CCc1cc(C(=O)Nc2cccc(-c3nnn[nH]3)c2)sc1C | > 99.5 µM | > 100 µM
70 | O=C(Nc1cc(Cl)cc(-c2cccc3c(C(=O)O)cccc23)c1)OCc1ccccc1 | 9.78 µM | 7.51 µM
71 | NCc1cc(Br)cc([C@H]2C[C@@H]2c2cc(Cl)cc(NC(=O)OCc3ccccc3)c2)c1 | 16.1 µM | 33.5 µM
72 | CNC(=O)[C@H](Nc1cccc(-c2nnn[nH]2)c1)c1cc(Cl)cc(C2CC2)c1 | > 99.5 µM | > 100 µM
73 | O=C(Nc1cc(Cl)cc(N[C@H](C#CCO)c2ccc(-c3nn[nH]n3)cc2)c1)OCc1ccccc1 | 26.4 µM | 11.7 µM
74 | CNC(=O)[C@H](Nc1ccc(-c2nn[nH]n2)cc1)c1cc(Cl)cc(NC(=O)OCc2ccccc2)c1 | 50 µM | 40.7 µM
